Results reported in publication PMC9578392, “Safety, Tolerability, and Pharmacokinetics of the Novel Antiviral Agent Ensitrelvir Fumaric Acid, a SARS-CoV-2 3CL Protease Inhibitor, in Healthy Adults” (Antimicrobial Agents and Chemotherapy, 2022).

How the values were obtained:
[1] = in vivo; cited from earlier work
CYP3A = test: Drug-drug interaction with midazolam (cohort G)
Omicron = system: Omicron; set-up: method as in PMID 35081300; settings: cited from earlier work
[2] = midazolam 2 mg, ensitrelvir 750/250 mg

## CC(C)(C)[C@H](NC(=O)C(F)(F)F)C(=O)N1C[C@H]2[C@@H]([C@H]1C(=O)N[C@H](C#N)C[C@@H]1CCNC1=O)C2(C)C [nirmatrelvir]
[1]
  elimination in humans: rapid

## Cc1ncc2n1-c1ccc(Cl)cc1C(c1ccccc1F)=NC2 [Midazolam, midazolam]
CYP3A; ensitrelvir 750/250 mg, day 6
  increase of AUC0-last of midazolam coadministered with ensitrelvir vs midazolam alone: 7.23 fold
  increase of Cmax of midazolam coadministered with ensitrelvir vs midazolam alone: 2.78 fold
CYP3A; human, in vivo
  half-life: 9.13 h
CYP3A; human, in vivo, 2 mg
  AUC(0-inf): 35.7 ng·h/mL
  AUC(0-t): 34.7 ng·h/mL
  Cmax: 16.2 ng/mL
  MRT: 4.11 h
  half-life: 4.36 h
  k el: 4.42e-05 s⁻¹
CYP3A; [2]
  AUC0-inf, GLS mean (90% CI) ratio (midazolam with ensitrelvir/midazolam alone): 8.8002 (6.7061/11.5484)
  AUC0-last, GLS mean (90% CI) ratio (midazolam with ensitrelvir/midazolam alone): 7.2293 (5.5817/9.3632)
  Cmax, GLS mean (90% CI) ratio (midazolam with ensitrelvir/midazolam alone): 2.7763 (2.3341/3.3022)
  MRT, GLS mean (90% CI) ratio (midazolam with ensitrelvir/midazolam alone): 2.8734 (2.5380/3.2530)
  t1/2,z, GLS mean (90% CI) ratio (midazolam with ensitrelvir/midazolam alone): 2.0954 (1.9490/2.2529)

## CC(C)C(=O)OC[C@H]1O[C@@H](n2ccc(NO)nc2=O)[C@H](O)[C@@H]1O [molnupiravir]
Omicron
  efficacy against Omicron: efficacious

## CCC(CC)COC(=O)[C@H](C)N[P@](=O)(OC[C@H]1O[C@@](C#N)(c2ccc3c(N)ncnn23)[C@H](O)[C@@H]1O)Oc1ccccc1 [remdesivir]
Omicron
  efficacy against Omicron: efficacious
